Laboratory results taken from patent US11235020B2, “Methods and compositions for inhibiting glyoxalase 1 (GLO1)” (priority 2013, dated 2022).

Experiments:
anxiety-like behavior = conditions: intracerebroventricular MG for six days (Hambsch 2010); cited from earlier work
[1] = test system: anxiety-like behavior in C57BL6/J mice; assay: OFT after bilateral microinjection into the basolateral amygdala (BLA); conditions: MG 12 uM or 24 uM, 0.5 ul bilateral into BLA, over 30 m
[2] = test system: depression-like behavior in mice; conditions: intracerebroventricular MG for six days (Hambsch 2010); cited from earlier work
glycine receptors = assay: Glycinergic currents in CGN; format: cell-based, rat; conditions: 10 μM MG
Description: Ligand-gated currents: Ligand-gated currents were studied in voltage-clamp mode by application of reagents to cells held at −50 mV. GABAergic and glycinergic currents were activated by application of GABA and glycine and antagonized by application of SR and strychnine, respectively (Kaneda 1995). Glutamatergic currents were activated by 1-glutamate and antagonized by CNQX and AP-5 (Wyllie 1994).

mice = assay: Hypothermia (rectal temperature); format: in vivo, mouse; conditions: 300 mg/kg i.p., B6 mice
Experimental: Hypothermia: Thirty minutes post-injection, rectal temperature was measured with a digital thermometer.

neuronal cell death = conditions: literature (Di Loreto 2008; Di Loreto 2004; Li 2010); cited from earlier work
CD-1 mice = assay: Accelerating rotarod; format: in vivo, mouse; conditions: MG 300 mg/kg
Experimental: On day 1, mice were trained on the rotarod for five consecutive trials. […] The latency to fall and the rotarod speed at the time of the fall were recorded.

Structure (SMILES): CC(=O)C=O [MG, methylglyoxal]
- anxiety-like behavior in the EPM (anxiety-like behavior): reduced anxiety-like behavior in the EPM
- center duration in the OFT [1]: increased center duration in the OFT
- immobility in the TST [2]: reduced immobility in the TST
- activation of glycine receptors (glycine receptors): did not activate
- hypothermia (mice): hypothermia
- MG concentrations that induce neuronal cell death in vitro (neuronal cell death): 100-1,000 μM
- speed at fall from accelerating rotarod (ataxia) (CD-1 mice): fell from an accelerating rotarod at slower speeds than vehicle-treated mice
